US10479784B2, “Substituted pyrazin-2-amines as inhibitors of ATR kinase” (Vertex Pharmaceuticals Incorporated, priority 2008, dated 2019)
pKi: −log10 of the molar value.

The molecules below were run against full-length ATR (Homo sapiens (Human), UniProt Q13535) (assay: ATR Inhibition Assay (radioactive-phosphate incorporation)). Conditions: read-out: ATR Ki.
Chain of full-length ATR (Q13535 whole entry): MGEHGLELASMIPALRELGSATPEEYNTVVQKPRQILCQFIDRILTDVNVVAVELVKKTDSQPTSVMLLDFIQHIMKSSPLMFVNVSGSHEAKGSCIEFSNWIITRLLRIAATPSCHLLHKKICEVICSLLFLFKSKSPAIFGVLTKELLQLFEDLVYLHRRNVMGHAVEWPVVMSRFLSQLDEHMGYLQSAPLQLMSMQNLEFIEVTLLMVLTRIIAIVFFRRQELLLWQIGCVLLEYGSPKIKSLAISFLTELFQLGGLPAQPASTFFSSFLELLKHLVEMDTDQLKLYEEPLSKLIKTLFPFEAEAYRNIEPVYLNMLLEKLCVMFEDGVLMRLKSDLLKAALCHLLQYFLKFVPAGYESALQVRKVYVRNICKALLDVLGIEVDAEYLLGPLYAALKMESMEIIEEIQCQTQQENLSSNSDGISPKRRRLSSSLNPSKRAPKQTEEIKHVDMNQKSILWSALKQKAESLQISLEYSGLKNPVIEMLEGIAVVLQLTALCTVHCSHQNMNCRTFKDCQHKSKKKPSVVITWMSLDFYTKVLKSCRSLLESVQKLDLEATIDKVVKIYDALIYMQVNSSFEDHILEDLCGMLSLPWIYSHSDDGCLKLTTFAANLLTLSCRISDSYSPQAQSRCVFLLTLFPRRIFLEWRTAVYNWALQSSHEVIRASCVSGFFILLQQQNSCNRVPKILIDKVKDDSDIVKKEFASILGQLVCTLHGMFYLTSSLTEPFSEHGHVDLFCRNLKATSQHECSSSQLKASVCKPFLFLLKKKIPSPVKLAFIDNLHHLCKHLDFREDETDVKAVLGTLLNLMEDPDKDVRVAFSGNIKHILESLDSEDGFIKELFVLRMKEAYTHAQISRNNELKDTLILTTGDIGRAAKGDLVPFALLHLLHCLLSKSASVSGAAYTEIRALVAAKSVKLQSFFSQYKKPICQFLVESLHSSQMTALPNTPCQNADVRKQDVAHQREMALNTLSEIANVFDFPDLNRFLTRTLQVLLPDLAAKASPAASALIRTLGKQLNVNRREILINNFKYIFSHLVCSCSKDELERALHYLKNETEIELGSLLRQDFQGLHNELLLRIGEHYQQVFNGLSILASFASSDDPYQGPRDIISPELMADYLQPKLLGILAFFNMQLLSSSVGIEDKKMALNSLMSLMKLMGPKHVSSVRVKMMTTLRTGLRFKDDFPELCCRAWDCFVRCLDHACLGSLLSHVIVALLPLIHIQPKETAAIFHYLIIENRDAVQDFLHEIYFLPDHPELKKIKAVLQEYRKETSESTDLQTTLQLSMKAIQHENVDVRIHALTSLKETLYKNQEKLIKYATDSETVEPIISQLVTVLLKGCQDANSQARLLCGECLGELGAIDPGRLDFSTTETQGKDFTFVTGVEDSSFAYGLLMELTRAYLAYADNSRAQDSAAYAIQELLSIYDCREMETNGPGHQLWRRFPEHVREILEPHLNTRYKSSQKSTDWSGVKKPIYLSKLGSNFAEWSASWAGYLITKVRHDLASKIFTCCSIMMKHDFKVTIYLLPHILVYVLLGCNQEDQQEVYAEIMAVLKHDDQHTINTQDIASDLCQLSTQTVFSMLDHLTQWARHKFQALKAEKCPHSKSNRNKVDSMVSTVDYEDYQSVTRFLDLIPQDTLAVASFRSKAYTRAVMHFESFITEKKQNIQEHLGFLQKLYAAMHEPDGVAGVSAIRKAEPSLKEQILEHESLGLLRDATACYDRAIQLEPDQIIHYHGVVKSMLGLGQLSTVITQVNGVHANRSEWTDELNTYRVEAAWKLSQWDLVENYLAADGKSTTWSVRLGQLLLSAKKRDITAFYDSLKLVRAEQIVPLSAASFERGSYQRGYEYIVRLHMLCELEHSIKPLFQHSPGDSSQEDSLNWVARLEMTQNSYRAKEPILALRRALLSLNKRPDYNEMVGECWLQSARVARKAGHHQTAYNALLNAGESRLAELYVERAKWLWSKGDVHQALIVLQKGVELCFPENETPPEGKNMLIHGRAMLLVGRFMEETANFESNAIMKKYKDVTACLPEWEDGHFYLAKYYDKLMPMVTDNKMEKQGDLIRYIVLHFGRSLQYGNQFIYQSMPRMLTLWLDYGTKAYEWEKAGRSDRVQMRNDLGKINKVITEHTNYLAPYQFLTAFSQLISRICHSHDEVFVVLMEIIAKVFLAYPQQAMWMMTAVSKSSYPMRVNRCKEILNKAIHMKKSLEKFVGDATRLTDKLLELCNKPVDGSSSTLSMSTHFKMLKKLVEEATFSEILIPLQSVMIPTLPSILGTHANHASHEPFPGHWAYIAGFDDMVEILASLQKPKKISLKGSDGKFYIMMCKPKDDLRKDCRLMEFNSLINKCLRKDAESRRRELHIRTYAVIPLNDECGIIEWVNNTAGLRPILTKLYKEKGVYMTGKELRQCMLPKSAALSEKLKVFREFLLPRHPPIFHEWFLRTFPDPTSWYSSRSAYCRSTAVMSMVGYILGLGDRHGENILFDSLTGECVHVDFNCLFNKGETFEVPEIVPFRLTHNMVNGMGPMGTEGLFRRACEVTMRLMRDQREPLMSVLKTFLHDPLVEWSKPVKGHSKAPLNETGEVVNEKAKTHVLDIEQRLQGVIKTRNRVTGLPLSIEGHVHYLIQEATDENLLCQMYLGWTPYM
Assay type: biochemical
How it was run: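 Ki(app) was derived by non-linear regression of background-corrected initial rates of 33P incorporation into an 800 μM target peptide, read by phosphocellulose filter scintillation counting. Reaction conditions: 5 nM full-length ATR, 10 μM [γ-33P]ATP, pH 7.5 Tris buffer with MgCl2 and DTT, 25 °C, 10-min preincubation, 24 h run.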
For `COc1ccccc1NC(=O)c1nc(-c2ccc3[nH]ccc3c2)cnc1N` [Compound I-29, 3-amino-6-(1H-indol-5-yl)-N-(2-methoxyphenyl)pyrazine-2-carboxamide], the pKi was 7.00 to 8.00.
`Nc1ncc(-c2ccc(CO)cc2)nc1C(=O)Nc1ccccc1` [Compound I-16, 3-amino-6-(4-(hydroxymethyl)phenyl)-N-phenylpyrazine-2-carboxamide] gave a pKi of 5.30 to 7.00.
In the case of `CN(C)C1CCN(C(=O)c2ccc(-c3cnc(N)c(-c4nnc(-c5ccccc5)o4)n3)cc2F)CC1` [IA-4], the pKi was ≥ 8.00.
Molecule `CN(C)C(=O)c1ccccc1-c1cnc(N)c(-c2nnc(-c3ccccc3)o2)n1` [IA-244, 2-[5-amino-6-(5-phenyl-1,3,4-oxadiazol-2-yl)pyrazin-2-yl]-N,N-dimethyl-benzamide] has a pKi of 5.30 to 7.00.
In the case of `CC(C)S(=O)(=O)c1ccc(-c2cnc(N)c(-c3nnc(-c4ccc(CNC[C@@H](C)O)cc4F)o3)n2)cc1` [IA-341, (R)-1-(4-(5-(3-amino-6-(4-(isopropylsulfonyl)phenyl)pyrazin-2-yl)-1,3,4-oxadiazol-2-yl)-3-fluorobenzylamino)propan-2-ol], the pKi was ≥ 8.00.
`CC(C)S(=O)(=O)c1ccc(-c2cnc(N)c(-c3nnc(-c4cccc(CN)c4)o3)n2)cc1` [IA-220, 3-[5-[3-(aminomethyl)phenyl]-1,3,4-oxadiazol-2-yl]-5-(4-isopropylsulfonylphenyl)pyrazin-2-amine] was tested, and the pKi was ≥ 8.00.
`CSc1ccccc1-c1cnc(N)c(-c2nnc(-c3ccccc3)o2)n1` [IA-230, 5-(2-methylsulfanylphenyl)-3-(5-phenyl-1,3,4-oxadiazol-2-yl)pyrazin-2-amine] showed a pKi of 7.00 to 8.00.
In the case of `Nc1ncc(-c2cccnc2)nc1C(=O)Nc1cccc(S(N)(=O)=O)c1` [Compound I-101, 3-amino-6-(pyridin-3-yl)-N-(3-sulfamoylphenyl)pyrazine-2-carboxamide], the pKi was 7.00 to 8.00.
`Nc1ncc(-c2ccc(C(=O)CN3CCC(O)CC3)cc2)nc1C(=O)Nc1ccccc1` [Compound I-23, 3-amino-6-(4-(2-(4-hydroxypiperidin-1-yl)acetyl)phenyl)-N-phenylpyrazine-2-carboxamide] was tested, and the pKi was 7.00 to 8.00.
For `C#Cc1nnc(-c2nc(-c3ccc(S(=O)(=O)C(C)C)cc3)cnc2N)o1` [IA-258, 3-(5-ethynyl-1,3,4-oxadiazol-2-yl)-5-(4-isopropylsulfonylphenyl)pyrazin-2-amine], the pKi was ≥ 8.00.
For `CC(C)S(=O)(=O)c1ccc(-c2cnc(N)c(-c3nnc(NC(=O)C(C)(C)N)o3)n2)cc1` [IA-219, 2-amino-N-[5-[3-amino-6-(4-isopropylsulfonylphenyl)pyrazin-2-yl]-1,3,4-oxadiazol-2-yl]-2-methyl-propanamide], the pKi was 5.30 to 7.00.
With `COC(=O)N1CCCN(C(=O)c2ccc(-c3cnc(N)c(-c4nnc(-c5ccccc5)o4)n3)cc2)CC1` [IA-34] the pKi was ≥ 8.00.
`CN(C)C(=O)c1ccc(-c2cnc(N)c(-c3nnc(-c4ccccc4OCCO)o3)n2)cc1` [IA-196, 4-[5-amino-6-[5-[2-(2-hydroxyethoxy)phenyl]-1,3,4-oxadiazol-2-yl]pyrazin-2-yl]-N,N-dimethyl-benzamide] was tested, and the pKi was ≥ 8.00.
Molecule `CN(C)C(=O)c1ccc(-c2cnc(N)c(-c3nnc(-c4cccnc4)o3)n2)cc1` [IA-41] has a pKi of 7.00 to 8.00.
`CC(=O)Nc1cccc(NC(=O)c2nc(-c3cccnc3)cnc2N)c1` [Compound I-95, 3-amino-N-(3-ethanamidophenyl)-6-(pyridin-3-yl)pyrazine-2-carboxamide] gave a pKi of 5.30 to 7.00.
In the case of `CN(C)C(=O)c1ccc(-c2cnc(N)c(-c3nnc(-c4cccc(CNC(=O)OC(C)(C)C)c4)o3)n2)cc1` [IA-73, tert-butyl N-[[3-[5-[3-amino-6-[4-(dimethylcarbamoyl)phenyl]pyrazin-2-yl]-1,3,4-oxadiazol-2-yl]phenyl]methyl]carbamate], the pKi was ≥ 8.00.
With `CN(C)C(=O)c1ccc(-c2cnc(N)c(-c3nnc(N4CCC4)o3)n2)cc1` [IA-192, 4-[5-amino-6-[5-(azetidin-1-yl)-1,3,4-oxadiazol-2-yl]pyrazin-2-yl]-N,N-dimethyl-benzamide] the pKi was 5.30 to 7.00.
`NCCSc1ccccc1-c1cnc(N)c(-c2nnc(-c3ccccc3)o2)n1` [IA-224, 5-(2-(2-aminoethylthio)phenyl)-3-(5-phenyl-1,3,4-oxadiazol-2-yl)pyrazin-2-amine] gave a pKi of 5.30 to 7.00.
`CN(C)C(=O)c1ccc(-c2cnc(N)c(-c3nnc(-c4ccco4)o3)n2)cc1` [IA-115, 4-[5-amino-6-[5-(2-furyl)-1,3,4-oxadiazol-2-yl]pyrazin-2-yl]-N,N-dimethyl-benzamide] showed a pKi of 7.00 to 8.00.
`CNCc1ccc(-c2nnc(-c3nc(-c4ccc(S(C)(=O)=O)cc4)cnc3N)o2)cc1` [IA-288, 3-[5-[4-(methylaminomethyl)phenyl]-1,3,4-oxadiazol-2-yl]-5-(4-methylsulfonylphenyl)pyrazin-2-amine] was tested, and the pKi was ≥ 8.00.
`CC(C)S(=O)(=O)c1ccc(-c2cnc(N)c(-c3nnc(C(=O)NCC4CCCNC4)o3)n2)cc1` (stereo not shown) [IA-255, 5-[3-amino-6-(4-isopropylsulfonylphenyl)pyrazin-2-yl]-N-(3-piperidylmethyl)-1,3,4-oxadiazole-2-carboxamide] was tested, and the pKi was 5.30 to 7.00.
Work on `CC(=O)Nc1ccc(-c2cnc(N)c(-c3nnc(-c4ccccc4)o3)n2)cc1` [IA-247, N-[4-[5-amino-6-(5-phenyl-1,3,4-oxadiazol-2-yl)pyrazin-2-yl]phenyl]acetamide] yielded a pKi of 7.00 to 8.00.
`Cc1ncccc1NC(=O)c1nc(-c2ccc(S(C)(=O)=O)cc2)cnc1N` [VII-5] gave a pKi of 7.00 to 8.00.
With `CC(C)S(=O)(=O)c1ccc(-c2cnc(N)c(-c3nnc(N4CCCC(CN)C4)o3)n2)cc1` (stereo not shown) [IA-227, 3-[5-[3-(aminomethyl)-1-piperidyl]-1,3,4-oxadiazol-2-yl]-5-(4-isopropylsulfonylphenyl)pyrazin-2-amine] the pKi was 5.30 to 7.00.
In the case of `Cc1ccsc1-c1nnc(-c2nc(-c3ccc(S(=O)(=O)CCN(C)C)cc3)cnc2N)o1` [IA-269, 5-[4-(2-dimethylaminoethylsulfonyl)phenyl]-3-[5-(3-methyl-2-thienyl)-1,3,4-oxadiazol-2-yl]pyrazin-2-amine], the pKi was ≥ 8.00.
For `CC(C)S(=O)(=O)c1ccc(-c2cnc(N)c(-c3nnc(CCNC(=O)OC(C)(C)C)o3)n2)cc1` [IA-251, tert-butyl N-[2-[5-[3-amino-6-(4-isopropylsulfonylphenyl)pyrazin-2-yl]-1,3,4-oxadiazol-2-yl]ethyl]carbamate], the pKi was 5.30 to 7.00.
`CC(C)(C)CC(=O)N1CCCN(C(=O)c2ccc(-c3cnc(N)c(-c4nnc(-c5ccccc5)o4)n3)cc2)CC1` [IA-31] was tested, and the pKi was ≥ 8.00.
In the case of `CNCc1ccc(-c2nnc(-c3nc(-c4ccc(S(=O)(=O)CCCO)cc4)cnc3N)o2)cc1` [IA-301, 3-[4-[5-amino-6-[5-[4-(methylaminomethyl)phenyl]-1,3,4-oxadiazol-2-yl]pyrazin-2-yl]phenyl]sulfonylpropan-1-ol], the pKi was ≥ 8.00.
In the case of `CC(C)S(=O)(=O)c1ccc(-c2cnc(N)c(-c3nnc(-c4ccc([C@@H](C)N)cc4)o3)n2)cc1` [IA-124, 3-[5-[4-[(1R)-1-aminoethyl]phenyl]-1,3,4-oxadiazol-2-yl]-5-(4-isopropylsulfonylphenyl)pyrazin-2-amine], the pKi was ≥ 8.00.
For `NC(=O)C1CCN(C(=O)c2cccc(-c3cnc(N)c(C(=O)Nc4ccccc4)n3)c2)CC1` [Compound I-62, 3-amino-6-(3-(4-carbamoylpiperidine-1-carbonyl)phenyl)-N-phenylpyrazine-2-carboxamide], the pKi was 5.30 to 7.00.
`CC(C)S(=O)(=O)c1ccc(-c2cnc(N)c(-c3nnc(N4CCCC(N)C4)o3)n2)cc1` (stereo not shown) [IA-206, 3-[5-(3-amino-1-piperidyl)-1,3,4-oxadiazol-2-yl]-5-(4-isopropylsulfonylphenyl)pyrazin-2-amine] gave a pKi of 5.30 to 7.00.
In the case of `CNCc1ccc(-c2nnc(-c3nc(-c4ccc(S(=O)(=O)CCN(C)C)cc4)cnc3N)o2)cc1` [IA-289, 5-[4-(2-dimethylaminoethylsulfonyl)phenyl]-3-[5-[4-(methylaminomethyl)phenyl]-1,3,4-oxadiazol-2-yl]pyrazin-2-amine], the pKi was ≥ 8.00.
In the case of `CC(C)S(=O)(=O)c1ccc(-c2cnc(N)c(-c3nnc(-c4ccccc4)o3)n2)cc1` [IA-116, 5-(4-isopropylsulfonylphenyl)-3-(5-phenyl-1,3,4-oxadiazol-2-yl)pyrazin-2-amine], the pKi was ≥ 8.00.
In the case of `Nc1ncc(-c2ccsc2)nc1-c1nnc(-c2ccccc2)o1` [IA-104, 3-(5-phenyl-1,3,4-oxadiazol-2-yl)-5-(3-thienyl)pyrazin-2-amine], the pKi was 7.00 to 8.00.
`CN(C)C(=O)c1ccc(-c2cnc(N)c(-c3nnc(-c4ccccc4)o3)n2)c(-c2cnco2)c1` [IA-161, 4-[5-amino-6-(5-phenyl-1,3,4-oxadiazol-2-yl)pyrazin-2-yl]-N,N-dimethyl-3-oxazol-5-yl-benzamide] gave a pKi of 7.00 to 8.00.
In the case of `N#Cc1cc(C(=O)N2CCCNCC2)ccc1-c1cnc(N)c(-c2nnc(-c3ccccc3)s2)n1` [IVA-2, 2-[5-amino-6-(5-phenyl-1,3,4-thiadiazol-2-yl)pyrazin-2-yl]-5-(1,4-diazepane-1-carbonyl)benzonitrile], the pKi was ≥ 8.00.
In the case of `CS(=O)(=O)c1ccc(-c2cnc(N)c(-c3nc4ccc(Cl)cc4[nH]3)n2)cc1` [Compound I-114, 3-(6-chloro-1H-benzo[d]imidazol-2-yl)-5-(4-(methylsulfonyl)phenyl) pyrazin-2-amine], the pKi was ≥ 8.00.
In the case of `CC(C)S(=O)(=O)c1ccc(-c2cnc(N)c(-c3nnc(-c4cccc([C@H](C)N)c4)o3)n2)cc1` [IA-123, 3-[5-[3-[(1S)-1-aminoethyl]phenyl]-1,3,4-oxadiazol-2-yl]-5-(4-isopropylsulfonylphenyl)pyrazin-2-amine], the pKi was ≥ 8.00.
In the case of `CC(C)S(=O)(=O)c1ccc(-c2cnc(N)c(-c3nnc(-c4ccc(C(C)(C)N)cc4)o3)n2)cc1` [IA-311, 3-[5-[4-(1-amino-1-methyl-ethyl)phenyl]-1,3,4-oxadiazol-2-yl]-5-(4-isopropylsulfonylphenyl)pyrazin-2-amine], the pKi was ≥ 8.00.
With `Cc1ccc2nc(-c3nc(-c4ccc(S(C)(=O)=O)cc4)cnc3N)[nH]c2c1` [Compound I-117, 3-(6-methyl-1H-benzo[d]imidazol-2-yl)-5-(4-(methylsulfonyl)phenyl) pyrazin-2-amine] the pKi was 7.00 to 8.00.
